Results reported in patent US20150342234A1, “Steviol Glycoside Compositions Sensory Properties” (Evolva SA, priority 2012, published 2015).

Columns and labels:
[1] = system: panel of 9 tasters (8 trained sensory panellists and 1 Evolve employee); assay: Sensory evaluation by rapid profiling protocol, blinded samples, two replicates; assay type: in vivo; conditions: for Sweetness build Fl. mean score / Sweetness onset Fl. mean score: after 1st sip, mean of Rep 1 and Rep 2, 0.0385% w/v in mineral water; for Sweetness build Fl. mean score / Sweetness onset Fl. mean score / Acid At. mean score / Artificial sweetness At. mean score / Bitter At. mean score / Overall Sweetness At. mean score / liquorice At. mean score / Acid Fl. mean score / Artificial sweetness Fl. mean score / Bitter Fl. mean score / Liquorice FL mean score / Overall Sweetness Fl. mean score / Body/ thickness Mf. mean score / Mouth coating Mf. mean score / Mouth drying Mf. mean score / Mouth watering Mf. mean score / Tingling Mf. mean score: 0-100 scale; for Acid At. mean score / Artificial sweetness At. mean score / Bitter At. mean score / Overall Sweetness At. mean score / liquorice At. mean score: aftertaste; for Acid At. mean score / Artificial sweetness At. mean score / Bitter At. mean score / Overall Sweetness At. mean score / liquorice At. mean score / Acid Fl. mean score / Artificial sweetness Fl. mean score / Bitter Fl. mean score / Liquorice FL mean score / Overall Sweetness Fl. mean score / Body/ thickness Mf. mean score / Mouth coating Mf. mean score / Mouth drying Mf. mean score / Mouth watering Mf. mean score / Tingling Mf. mean score: mean of 2 replicates, 0.0385% w/v; for Acid Fl. mean score / Artificial sweetness Fl. mean score / Bitter Fl. mean score / Liquorice FL mean score / Overall Sweetness Fl. mean score: flavor; for Acid Fl. mean score / Artificial sweetness Fl. mean score / Bitter Fl. mean score / Liquorice FL mean score / Overall Sweetness Fl. mean score / Body/ thickness Mf. mean score: after second and third sip; for Body/ thickness Mf. mean score / Mouth coating Mf. mean score / Mouth drying Mf. mean score / Mouth watering Mf. mean score / Tingling Mf. mean score: mouthfeel
Method: (§1) A sensory evaluation of the sample isolated in Example 5 was conducted by a commercial consumer research and sensory analysis company, using a rapid profiling protocol. The sensory profile of the yeast fermented Reb A product was compared to that of a commercially available RebA product by a panel of 9 tasters (8 trained sensory panellists and 1 Evolve employee), over a two hour period. […] Both products were dissolved in Highland Springs bottled mineral water (Highland Spring Group, Blackford, Pertishire, United Kingdom) at 0.0385% w/v, which is approximately equivalent in sweetness to 8% sucrose.
After a break, the panelists were presented one blinded sample of the yeast-derived RebA solution and one blinded sample of the commercial RebA solution. Sample were presented in a balanced order to the panelists. For each blinded sample, panelists carried out the following tasting procedure. Panelists were instructed take one sip of the sample and score the Sweetness Build and Sweetness Onset attributes. A second and third sip of the sample were then taken, and panelists were instructed to score Flavor Attributes and Mouth Feel attribute Body/thickness. Each panelist then took a final sip of the sample and was asked to score Aftertaste and Mouth Sensations at 20 seconds and 120 seconds after the final sip.
All panellist scores were entered into a computer using Compusense® data collection software (Compusense, Guelph, Ontario, Canada). Agreed reference scores were marked on the scales as a guide. A rest period of 5 minutes duration was observed between samples and palate cleansers of Carr's® water crackers (Kellogg's, Battle Creek, Mich.) and Highland Spring bottled mineral water applied during this time.
After one replicate of testing had been completed, panelists discussed differences between products. Panelists thought there were some subtle differences between products but no new flavors, off flavors, or mouth sensations were experienced. It was therefore decided to carry out a second replicate testing of the two Reb A samples using the same vocabulary and different blinding codes. The same tasting procedure was used for the second replicate as that used for the first replicate.
Mean scores were calculated for each attribute and sample over the two replicates (Rep 1 and Rep 2). Table 16 provides the mean scores for each attribute. Scores in bold shown a statistically significant difference between the two RebA samples.

[2] = system: panel of 9 tasters (8 trained sensory panellists and 1 Evolve employee); assay: Agreed reference intensity scores for the commercial Reb A reference sample (vocabulary determination); assay type: in vivo; conditions: agreed approximate intensity score, 0-100 scale; 0.0385% w/v
Method: as §1
An appropriate vocabulary was determined using the commercial Reb A solution as a reference sample. As a starting point, the panel used an attribute vocabulary agreed to for previous sweetener sensory analyses, including sweetness onset time, sweetness build, sweetness, bitterness, etc. Panelists discussed and agreed which of the attributes were present in the reference sample and also agreed on approximate intensity scores on a 0-100 scale for each attribute. Table 15 describes each characteristic that was assessed and how each characteristic was scored for the reference sample.

[3] = first block (20 seconds after final sip)
[4] = second block (120 seconds after final sip)

C=C1C[C@@]23CC[C@H]4[C@@](C)(CCC[C@@]4(C)C(=O)O[C@@H]4O[C@H](CO)[C@@H](O)[C@H](O)[C@H]4O)[C@@H]2CC[C@]1(O[C@@H]1O[C@H](CO)[C@@H](O)[C@H](O[C@@H]2O[C@H](CO)[C@@H](O)[C@H](O)[C@H]2O)[C@H]1O[C@@H]1O[C@H](CO)[C@@H](O)[C@H](O)[C@H]1O)C3 [Commercial RebA, rebaudioside A]
Sweetness build Fl. mean score [1]: 34.5
Sweetness onset Fl. mean score [1]: 5.6
Acid At. mean score [1, 3]: 8.5
Artificial sweetness At. mean score [1, 3]: 40.8
Bitter At. mean score [1, 3]: 22.1
Overall Sweetness At. mean score [1, 3]: 52.8
liquorice At. mean score [1, 3]: 21.1
Acid At. mean score [1, 4]: 8.9
Artificial sweetness At. mean score [1, 4]: 32.6
Bitter At. mean score [1, 4]: 20.6
Overall Sweetness At. mean score [1, 4]: 49.6
liquorice At. mean score [1, 4]: 16.3
Acid Fl. mean score [1]: 10.6
Artificial sweetness Fl. mean score [1]: 54.0
Bitter Fl. mean score [1]: 20.7
Liquorice FL mean score [1]: 18.0
Overall Sweetness Fl. mean score [1]: 61.7
Body/ thickness Mf. mean score [1]: 39.4
Mouth coating Mf. mean score [1, 3]: 27.4
Mouth drying Mf. mean score [1, 3]: 40.1
Mouth watering Mf. mean score [1, 3]: 10.9
Tingling Mf. mean score [1, 3]: 13.0
Mouth coating Mf. mean score [1, 4]: 26.3
Mouth drying Mf. mean score [1, 4]: 42.7
Mouth watering Mf. mean score [1, 4]: 14.7
Tingling Mf. mean score [1, 4]: 12.9
sweetness build score compared with the yeast derived RebA sample ([1]; time to peak in sweetness intensity, 95% confidence level): significantly longer
Acidic (Flavor/Aftertaste) Score after 3 d sip (20 sec) [2]: 10
Acidic (Flavor/Aftertaste) Score after 3 d sip (2 min) [2]: 10
Acidic (Flavor/Aftertaste) Score after 3 d sip (immediate) [2]: 10
Artificial sweetness (Flavor/Aftertaste) Score after 3 d sip (20 sec) [2]: 35
Artificial sweetness (Flavor/Aftertaste) Score after 3 d sip (2 min) [2]: 20
Artificial sweetness (Flavor/Aftertaste) Score after 3 d sip (immediate) [2]: 55
Bitter (Flavor/Aftertaste) Score after 3 d sip (20 sec) [2]: 20
Bitter (Flavor/Aftertaste) Score after 3 d sip (2 min) [2]: 20
Bitter (Flavor/Aftertaste) Score after 3 d sip (immediate) [2]: 10
Body/thickness (Mouthfeel) Score after 3 d sip (immediate) [2]: 40
Liquorice (Flavor/Aftertaste) Score after 3 d sip (20 sec) [2]: 35
Liquorice (Flavor/Aftertaste) Score after 3 d sip (2 min) [2]: 30
Liquorice (Flavor/Aftertaste) Score after 3 d sip (immediate) [2]: 30
Mouth coating (Mouthfeel) Score after 3 d sip (20 sec) [2]: 30
Mouth coating (Mouthfeel) Score after 3 d sip (2 min) [2]: 30
Mouth drying (Mouthfeel) Score after 3 d sip (20 sec) [2]: 35
Mouth drying (Mouthfeel) Score after 3 d sip (2 min) [2]: 35
Mouth watering (Mouthfeel) Score after 3 d sip (20 sec) [2]: 0
Mouth watering (Mouthfeel) Score after 3 d sip (2 min) [2]: 20
Overall Sweetness (Flavor/Aftertaste) Score after 3 d sip (20 sec) [2]: 50
Overall Sweetness (Flavor/Aftertaste) Score after 3 d sip (2 min) [2]: 50
Overall Sweetness (Flavor/Aftertaste) Score after 3 d sip (immediate) [2]: 70
Sweetness build (Flavor) Score after 1st sip [2]: 30
Sweetness onset (Flavor) Score after 1st sip [2]: 5
Tingling (Mouthfeel) Score after 3 d sip (20 sec) [2]: 10
Tingling (Mouthfeel) Score after 3 d sip (2 min) [2]: 5

C=C1C[C@@]23CC[C@H]4[C@@](C)(CCC[C@@]4(C)C(=O)O[C@@H]4O[C@H](CO)[C@@H](O)[C@H](O)[C@H]4O)[C@@H]2CC[C@]1(O[C@@H]1O[C@H](CO)[C@@H](O)[C@H](O[C@@H]2O[C@H](CO)[C@@H](O)[C@H](O)[C@H]2O)[C@H]1O[C@@H]1O[C@H](CO)[C@@H](O)[C@H](O)[C@H]1O)C3 [Yeast derived Reb A, rebaudioside A]
Sweetness build Fl. mean score [1]: 30.2
Sweetness onset Fl. mean score [1]: 5.5
Acid At. mean score [1, 3]: 6.9
Artificial sweetness At. mean score [1, 3]: 33.8
Bitter At. mean score [1, 3]: 17.2
Overall Sweetness At. mean score [1, 3]: 49.6
liquorice At. mean score [1, 3]: 19.2
Acid At. mean score [1, 4]: 5.5
Artificial sweetness At. mean score [1, 4]: 30.0
Bitter At. mean score [1, 4]: 18.1
Overall Sweetness At. mean score [1, 4]: 46.2
liquorice At. mean score [1, 4]: 16.2
artificial sweetness score compared with the commercial RebA sample ([1]; at 20 seconds): significantly less
bitter score compared with the commercial RebA sample ([1]; at 20 seconds, not statistically significantly different): lower
Acid Fl. mean score [1]: 8.3
Artificial sweetness Fl. mean score [1]: 41.8
Bitter Fl. mean score [1]: 11.8
Liquorice FL mean score [1]: 17.2
Overall Sweetness Fl. mean score [1]: 58.5
Body/ thickness Mf. mean score [1]: 37.1
Mouth coating Mf. mean score [1, 3]: 28.9
Mouth drying Mf. mean score [1, 3]: 40.8
Mouth watering Mf. mean score [1, 3]: 10.1
Tingling Mf. mean score [1, 3]: 9.8
Mouth coating Mf. mean score [1, 4]: 24.7
Mouth drying Mf. mean score [1, 4]: 39.8
Mouth watering Mf. mean score [1, 4]: 15.7
Tingling Mf. mean score [1, 4]: 8.8
off flavors ([1]; panellist reports): no reports of off flavors
